Measurements reported in paper doi:10.1101/2024.12.09.627564, “Cannabinoid inhibition of mechanosensitive K^+ channels” (bioRxiv, 2024).

Legend:
TRAAKG165E = molecular target: T1, TRAAKG165E (Homo sapiens, UniProt Q9NYG8, G139E); test: Excised patch recording of TRAAK mutant G165E; assay type: biochemical
T1 construct: The transcribed messages encode H. sapiens TRAAK amino acids 1–393; expressed in transfected cells; host or cells: Xenopus laevis oocytes, cRNA injection
T1 sequence (Q9NYG8 1-393 G139E): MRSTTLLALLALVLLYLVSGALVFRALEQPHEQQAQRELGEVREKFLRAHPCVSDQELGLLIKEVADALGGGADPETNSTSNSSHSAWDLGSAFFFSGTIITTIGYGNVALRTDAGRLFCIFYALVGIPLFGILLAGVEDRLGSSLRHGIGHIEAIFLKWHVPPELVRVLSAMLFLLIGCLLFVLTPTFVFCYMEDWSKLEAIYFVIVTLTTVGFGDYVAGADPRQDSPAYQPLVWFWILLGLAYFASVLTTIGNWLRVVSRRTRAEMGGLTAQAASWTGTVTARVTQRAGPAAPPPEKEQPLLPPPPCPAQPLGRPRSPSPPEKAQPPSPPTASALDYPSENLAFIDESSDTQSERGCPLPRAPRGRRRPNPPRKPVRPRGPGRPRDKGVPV
Text: For patch clamp recording from Xenopus oocytes, genes encoding full-length Homo sapiens TRAAK (UniProt Q9NYG8–2), TREK-1 (UniProt O95069), and TREK-2 (UniProt P57789) were codon optimized for eukaryotic expression, synthesized (Genewiz), and cloned into a modified pGEMHE vector using Xho1 and EcoR1 restriction sites. The transcribed messages encode H. sapiens TRAAK amino acids 1–393, TREK-1 amino acids 1–426, or TREK-2 amino acids 1–538 with an additional three amino acids (SNS) at the C terminus. TRAAK mutants were introduced by polymerase chain reaction (PCR). Linearized DNA was transcribed in vitro using T7 polymerase. […] Currents were recorded at 25 °C from inside-out patches excised from oocytes 1 to 5 d after RNA injection. […]
Patches were evaluated with voltage-step protocols to confirm TRAAK expression and minimal non-specific leak based on reversal potential. Currents were recorded using an Axopatch 200B amplifier (Molecular Devices) at a bandwidth of 1 kHz and digitized with an Digidata 1550B (Molecular Devices) at 100–500 kHz using pClamp10.7 software. […] In an effort to minimize variability associated with differences in resting membrane tension, we targeted patches with low basal curvature and low resting channel activity and ensured measured pressure difference across the patch was as close to zero as possible at rest to prevent mechanical activation of channels. […]

[1] = as measured in plasma or estimated in brain tissue; cited from earlier work

In the case of `C=C(C)[C@@H]1CCC(C)=C[C@H]1c1c(O)cc(CCCCC)cc1O` [CBD, Cannabidiol], the IC50 (TRAAKG165E) is given as 162 ± 8 nM and the “concentration in treated patients” value [1] is given as 50 to 100 nM.
